The record followed here is ChEMBL document CHEMBL1201862, “PubChem BioAssay data set” (2004).

In one assay the target is Major prion protein (Homo sapiens, UniProt P04156). The class given is functional, cell-based.
For assay [1], the target named is T1, Oxysterols receptor LXR-beta (Homo sapiens, UniProt P55055).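 Further: agonist activity at LXR measured by a cell-based luminescence readout across a dose range, run as a counterscreen for daf-12 agonists; HEK293 cells with Gal4-LXR fusion and GAL4-driven luciferase reporter; potency for activation of Gal4-LXR reporter so compounds are agonists.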
T1 sequence (P55055 whole entry): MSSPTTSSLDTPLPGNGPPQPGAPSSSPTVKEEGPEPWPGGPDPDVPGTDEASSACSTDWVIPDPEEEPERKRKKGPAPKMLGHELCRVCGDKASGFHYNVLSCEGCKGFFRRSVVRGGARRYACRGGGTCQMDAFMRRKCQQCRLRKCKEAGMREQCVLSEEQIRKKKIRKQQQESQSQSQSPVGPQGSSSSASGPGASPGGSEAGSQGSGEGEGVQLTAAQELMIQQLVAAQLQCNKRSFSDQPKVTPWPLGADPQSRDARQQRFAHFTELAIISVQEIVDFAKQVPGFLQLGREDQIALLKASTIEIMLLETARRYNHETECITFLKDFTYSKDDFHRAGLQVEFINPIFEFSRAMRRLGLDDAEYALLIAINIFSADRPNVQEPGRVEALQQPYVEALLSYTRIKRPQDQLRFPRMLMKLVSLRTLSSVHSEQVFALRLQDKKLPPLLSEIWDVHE
It is filed as functional, cell-based.

The target in another assay is T2, Protein skinhead-1 (Caenorhabditis elegans, UniProt P34707).
T2 sequence (P34707 whole entry): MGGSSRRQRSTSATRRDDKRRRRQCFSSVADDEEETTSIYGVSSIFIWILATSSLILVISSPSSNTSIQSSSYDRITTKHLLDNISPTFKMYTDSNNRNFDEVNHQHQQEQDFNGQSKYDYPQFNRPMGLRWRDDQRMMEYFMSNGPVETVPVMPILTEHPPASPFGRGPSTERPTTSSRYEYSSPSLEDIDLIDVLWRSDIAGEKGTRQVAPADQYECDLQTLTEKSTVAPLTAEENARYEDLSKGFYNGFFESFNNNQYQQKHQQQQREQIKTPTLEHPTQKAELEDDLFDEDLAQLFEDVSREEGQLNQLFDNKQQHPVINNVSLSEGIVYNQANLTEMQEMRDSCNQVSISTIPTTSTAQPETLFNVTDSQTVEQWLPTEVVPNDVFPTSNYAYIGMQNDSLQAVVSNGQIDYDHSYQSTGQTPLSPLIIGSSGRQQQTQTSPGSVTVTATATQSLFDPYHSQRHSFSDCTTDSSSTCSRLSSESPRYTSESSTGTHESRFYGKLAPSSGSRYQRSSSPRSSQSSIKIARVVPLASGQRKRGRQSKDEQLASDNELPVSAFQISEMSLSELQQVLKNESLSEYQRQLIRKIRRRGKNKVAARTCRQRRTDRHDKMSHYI
It is filed as functional.

A further assay has as its target fMet-Leu-Phe receptor (Homo sapiens, UniProt P21462). Briefly: formyl peptide receptor binders – dose response (AID 519). The class given is functional.
Assay [2] can be described thus: general mammalian cell viability loss – inhibitor set, cherry-pick, set 2, cytotoxicity control for miR-122 modulator project, dose response (AID 720697). The class given is functional, cell-based.
Assay [3] is described as follows: non-specific 3'UTR reporter inhibition in Clone20-Shn3RL – cell-based, Renilla luciferase, cherry-picked, counter-screen for Shn3 inhibitor project, dose response (AID 624133). The class given is functional. (In general: The purpose of a counterscreen is to sort out artefacts and off-target activity.)
A short description of assay [4]: activation of miR-122 Renilla sensor silencing – cell-based, Huh7 psiCHECK-miR122, Renilla luciferase, cherry-picked, dose response (AID 651956).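 Further: huh7 hepatoma cells stably carrying a psiCHECK-2 miR-122 sensor plasmid; renilla luciferase signal reporting endogenous miR-122 activity after 48 h compound exposure.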 It is filed as functional.
Assay [5] is described as follows: reduction of Shn3 3'UTR-driven luciferase in osteoblasts – cell-based, Clone20 osteoblasts, firefly luciferase, cherry-picked, dose response (AID 624132).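 Further: firefly luciferase luminescence from reporter carrying the Shn3 3'UTR in osteoblasts.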 It is filed as functional.
Assay [6] in a line: loss of viability in HepG2 cells – cell-based, CellTiter-Glo, cherry-picked, cytotoxicity control for Shn3 inhibitor project, dose response (AID 624134). The class given is functional. A general note: ATP-based viability assays read luminescence as a measure of living cells.
Another assay concerns the target Paired box protein Pax-8 (Homo sapiens, UniProt Q06710). Briefly: PAX8 transcriptional activity inhibition in RMG-I – RMG-I cells, luciferase, cherry-pick, dose response (AID 687027).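 Further: luciferase reporter driven by Pax8 target thyroperoxidase promoter measured by SteadyGlo luminescence.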 It is filed as functional, cell-based.
Assay [7] in a line: general cell-killing toxicity readout – plate reader, dry powder samples, cytotoxicity control for PAX8 inhibitor project, dose response (AID 743021). It is filed as functional, cell-based.

SMILES strings stand for the structures. Activity calls are given as the source filed them. Some results are limits rather than exact numbers.

Usually IC50 stands for the concentration that inhibits the measured activity by half. In general, EC50 refers to the concentration at which the effect is half-maximal. What is called Ki is the dissociation constant of the complex between target and ligand, obtained from inhibition or displacement. One may read the AC50 as the concentration giving half of the maximal activity seen.

On to `CCc1cc2c(=O)c(-c3ccc4c(c3)OCO4)coc2c(CN(C)C)c1O`, for which the half-inhibitory concentration (IC50) on Major prion protein was 2.07 µM (active); in the assay “cells” it was > 138 µM (inactive).

On to `S=C(c1ccc(-c2ccc(Cl)cc2)o1)N1CCCCC1`, for which, in [1], the EC50 was > 67.5 µM (inactive).

For the compound `Clc1ccc(Nc2ccc3ccccc3n2)cc1`, the EC50 in assay [1] was > 67.5 µM (inactive). Moreover, the IC50 at Protein skinhead-1 is > 100 µM (inactive).

In the case of `CCOc1ccc(C2C(C(=O)c3cccs3)=C(O)C(=O)N2CCCn2ccnc2)cc1` (stereo not given), on fMet-Leu-Phe receptor, the Ki was 57.1 µM (inactive).

In the case of `COc1ccccc1CNc1nc(NCC2CC2)nc2ccsc12`, the AC50 in assay [2] is 6.06 µM (active); in assay [3], 6.69 µM (active); in [4] it was 29.6 µM (active); in assay [5], 4.16 µM (active); in assay [6], 39.9 µM (active).

Regarding `CC(C)C#Cc1ccc2c(c1)O[C@H](CN(C)C(=O)c1ccncc1)[C@@H](C)CN([C@@H](C)CO)S2(=O)=O`, the half-maximal activity concentration (AC50) is 0.461 µM (active) in assay [2] and 11.6 µM (active) in assay [4].

Regarding `Cc1ccc(S(=O)(=O)N(C)C[C@H]2Oc3ccc(NS(=O)(=O)c4ccc(F)cc4)cc3CC(=O)N([C@H](C)CO)C[C@H]2C)cc1`, the concentration at half-maximal activity (AC50) is 21.5 µM (active) at Paired box protein Pax-8 and 52.8 µM (active) in assay [7].
